These results are taken from ChEMBL document CHEMBL3044780, “Simple and Rapid Screening Method for Photosystem II Inhibitory Herbicides Using Photoautotrophically Cultured Plant Cells with Chlorophyll Fluorescence Monitoring” (Biosci Biotechnol Biochem, 1993).

Usually logP stands for a log measure of how a compound divides between an organic and an aqueous phase. High values mean higher lipophilicity, low ones lower lipophilicity.

Data set [1] is described as follows: Lipophilicity, log P of the compound. Format: physicochemical. As to conditions: octanol/water.
The test system of data set [2] is Vigna radiata var. radiata. The experiment in a line: Herbicidal activity against Vigna radiata var. radiata assessed per 100 m'2 after 10 days by greenhouse pot test. Format: functional.

On to `CN(C)C(=O)Nc1ccc(C#N)cc1`, for which the logP in data set [1] is 0.97. Besides, in data set [2], the pLD50 worked out at 0.63.

Regarding `CN(C)C(=O)Nc1ccc(I)cc1`, in data set [1], the logP was found to be 2.36. For the same compound, the pLD50 in data set [2] came out at 1.75.

Take `CN(C)C(=O)Nc1ccc(Br)cc1`: the logP in data set [1] amounted to 2.07. The pLD50 in data set [2] was found to be 1.86.

Regarding `CN(C)C(=O)Nc1ccc(O)cc1`, the logP in data set [1] is 0.37. Moreover, the pLD50 in data set [2] is below 0.4.

On to `CN(C)C(=O)Nc1cccc(F)c1`, for which the logP in data set [1] came out at 1.37. The compound also returned a pLD50 in data set [2] of 1.76.

Regarding `CN(C)C(=O)Nc1cccc(Cl)c1`, the logP in data set [1] amounted to 2.33. In data set [2], the pLD50 came out at 2.16.

`COc1cccc(NC(=O)N(C)C)c1` returned a logP in data set [1] of 1.22. The pLD50 in data set [2] was 1.15.

On to `CN(C)C(=O)Nc1cccc([N+](=O)[O-])c1`, for which, in data set [1], the logP was determined as 1.33. In data set [2], this compound gave a pLD50 below 0.4.

`CN(C)C(=O)Nc1cccc(C#N)c1`: in data set [1], the lipophilicity (logP) was determined as 0.98. Besides, in data set [2], the pLD50 is below 0.4.

For the compound `CN(C)C(=O)Nc1cccc(O)c1`, the pLD50 in data set [2] is below 0.4.

On to `CN(C)C(=O)Nc1ccc(F)cc1`, for which, in data set [1], the logP stood at 1.13. Also, in data set [2], the pLD50 is recorded as 1.67.

With `Cc1ccc(NC(=O)N(C)C)cc1`, the logP in data set [1] was 1.41. This compound showed a pLD50 in data set [2] of 1.21.

In the case of `COc1ccc(NC(=O)N(C)C)cc1`, in data set [1], the logP is 1.02. Besides, the pLD50 in data set [2] stood at 1.61.

Consider `CN(C)C(=O)Nc1ccc(C(F)(F)F)cc1`, for which the logP in data set [1] was found to be 2.31. Further, the pLD50 in data set [2] was 1.45.

Turning to `CN(C)C(=O)Nc1ccc([N+](=O)[O-])cc1`, the logP in data set [1] turned out to be 1.43. For the same compound, the pLD50 in data set [2] was below 0.4.

In data set [1], `Cc1cccc(NC(=O)N(C)C)c1` displayed a logP of 1.46.

For `CN(C)C(=O)Nc1ccc(Cl)c(Cl)c1` [DCMU], the pLD50 in data set [2] turned out to be 2.75.

On to `CN(C)C(=O)Nc1ccccc1` [FENURON], for which the pLD50 in data set [2] came out at 1.54.

In the case of `CN(C)C(=O)Nc1cccc(C(F)(F)F)c1` [FLUOMETURON], in data set [1], the logP came out at 2.2. For the same compound, the pLD50 in data set [2] turned out to be 1.3.

Compound `CC(C)c1ccc(NC(=O)N(C)C)cc1` [ISOPROTURON] returned a lipophilicity (logP) in data set [1] of 2.87. In data set [2], this compound returned a pLD50 of 1.92.

Turning to `CN(C)C(=O)Nc1ccc(Cl)cc1` [MONURON], the logP in data set [1] is 1.99. The pLD50 in data set [2] is reported as 2.01.
